Target: T1, PPAR γ (Homo sapiens, UniProt P37231)
T1 construct: Following the challenge of the preadipocytes, cells may be lysed with lysis buffer; endogenous in cells; host or cells: preadipocytes
T1 sequence (P37231 1-505): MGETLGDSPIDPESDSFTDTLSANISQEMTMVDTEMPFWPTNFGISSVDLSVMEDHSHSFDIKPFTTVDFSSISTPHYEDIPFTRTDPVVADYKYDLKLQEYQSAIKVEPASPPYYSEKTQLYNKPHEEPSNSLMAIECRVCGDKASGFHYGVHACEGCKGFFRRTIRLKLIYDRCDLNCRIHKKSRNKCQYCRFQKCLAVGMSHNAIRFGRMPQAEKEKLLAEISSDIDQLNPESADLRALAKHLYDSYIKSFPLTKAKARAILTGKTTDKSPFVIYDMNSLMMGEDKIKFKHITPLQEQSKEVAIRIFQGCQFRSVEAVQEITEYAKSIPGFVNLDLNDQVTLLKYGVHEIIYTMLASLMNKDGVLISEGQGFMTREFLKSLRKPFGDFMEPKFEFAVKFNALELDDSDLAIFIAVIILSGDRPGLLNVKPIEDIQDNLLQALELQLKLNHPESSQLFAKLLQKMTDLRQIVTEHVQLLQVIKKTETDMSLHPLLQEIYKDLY
Assay: aP2 Assay for Agonist (induction of aP2 mRNA production); on Agonist Intrinsic Activity: test concentration or dose not given here
Format: cell-based
Conditions: fold increase over vehicle in induction of aP2 mRNA production; for PPAR γ Agonist Intrinsic Activity: Table 3 (stereoisomers)

Agonist Intrinsic Activity (Table 1) | Structure (SMILES) | other results
11.1 | CC(=O)CCCCN1C(=O)C(CCOc2ccccc2CC(=O)O)Oc2ccccc21 (stereo not drawn) [Compound 78, Benzeneacetic acid, 2-[2-[3,4-dihydro-3-oxo-4-(5-oxohexyl)-2H-1,4-benzoxazin-2-yl]ethoxy]-] | 
2.8 | CON=C(C)CCCCN1C(=O)C(CCOc2ccccc2CC(=O)O)Oc2ccccc21 (stereo not drawn) [Compound 80] | 
4.9 | CC(O)CCCCN1C(=O)C(CCOc2ccccc2CC(=O)O)Oc2ccccc21 (stereo not drawn) [Compound 82, Benzeneacetic acid, 2-[2-[3,4-dihydro-4-(5-hydroxyhexyl)-3-oxo-2H-1,4-benzoxazin-2-yl]ethoxy]-] | 
3.5 | CC(C)(O)CCCCN1C(=O)C(CCOc2ccccc2CC(=O)O)Oc2ccccc21 (stereo not drawn) [Compound 84] | 
24 | CC(=O)NC(C)CCCCN1C(=O)C(CCOc2ccccc2CC(=O)O)Oc2ccccc21 (stereo not drawn) [Compound 85] | 
37.9 | CC(F)(F)CCCCN1C(=O)C(CCOc2ccccc2CC(=O)O)Oc2ccccc21 (stereo not drawn) [Compound 87] | 
64.9 | O=C(O)Cc1ccccc1OCCC1Oc2ccccc2N(CCCCCCF)C1=O (stereo not drawn) [Compound 91, Benzeneacetic acid, 2-[2-[4-(6-fluorohexyl)-3,4-dihydro-3-oxo-2H-1,4-benzoxazin-2-yl]ethoxy]-] | 
36.9 | O=C(O)Cc1ccccc1OCCC1Oc2ccccc2N(CCCCCCO)C1=O (stereo not drawn) [Compound 95] | 
27.5 | CC(C)(CN)CCCCN1C(=O)C(CCOc2ccccc2CC(=O)O)Oc2ccccc21 (stereo not drawn) [Compound 96] | 
28 | NC(=O)CCCCCN1C(=O)C(CCOc2ccccc2CC(=O)O)Oc2ccccc21 (stereo not drawn) [Compound 98, Benzeneacetic acid, 2-[2-[4-(6-amino-6-oxohexyl)-3,4-dihydro-3-oxo-2H-1,4-benzoxazin-2-yl]ethoxy]-] | 
3.0 | O=C(O)CCCCCN1C(=O)C(CCOc2ccccc2CC(=O)O)Oc2ccccc21 (stereo not drawn) [Compound 101, 2H-1,4-Benzoxazine-4-hexanoic acid, 2-[2-[2-(carboxymethyl)phenoxy]ethyl]-3,4-dihydro-3-oxo-] | 
4.1 | CC(C)(CCCCN1C(=O)C(CCOc2ccccc2CC(=O)O)Oc2ccccc21)C(=O)O (stereo not drawn) [Compound 102] | 
26.5 | CC(C)(C#N)CCCCN1C(=O)C(CCOc2ccccc2CC(=O)O)Oc2ccccc21 (stereo not drawn) [Compound 104] | 
40.8 | CC(F)(F)CCCCCN1C(=O)C(CCOc2ccccc2CC(=O)O)Oc2ccccc21 (stereo not drawn) [Compound 106] | 
37.3 | CC(=O)CCCCCN1C(=O)C(CCOc2ccccc2CC(=O)O)Oc2ccccc21 (stereo not drawn) [Compound 108] | 
64.5 | O=C(O)Cc1ccccc1OCCC1Oc2ccccc2N(CCCCCCCF)C1=O (stereo not drawn) [Compound 110] | 

Agonist Intrinsic Activity (Table 1) | Structure (SMILES) | other results
74.5 | O=C(O)Cc1ccccc1OCCC1Oc2ccccc2N(CCCCCCCO)C1=O (stereo not drawn) [Compound 112] | 
29.1 | O=C(O)Cc1ccccc1OCCC1Oc2ccccc2N(CCCCCF)C1=O (stereo not drawn) [Compound 113] | 
50.7 | COCCCCN1C(=O)C(CCOc2ccccc2CC(=O)O)Oc2ccccc21 (stereo not drawn) [Compound 114] | 
40.9 | CCOCCCN1C(=O)C(CCOc2ccccc2CC(=O)O)Oc2ccccc21 (stereo not drawn) [Compound 115] | 
4.0 | CCCSCCN1C(=O)C(CCOc2ccccc2CC(=O)O)Oc2ccccc21 (stereo not drawn) [Compound 116] | 
45.9 | CCCOCCN1C(=O)C(CCOc2ccccc2CC(=O)O)Oc2ccccc21 (stereo not drawn) [Compound 117] | 
22.8 | O=C(O)Cc1ccccc1OCCC1Oc2ccccc2N(c2ccc(Cl)c(Cl)c2)C1=O (stereo not drawn) [Compound 119] | 
16.13 | CCCCCCN1C(=O)C(CCOc2ccc(SC(C)(C)C(=O)O)cc2)Oc2ccccc21 (stereo not drawn) [Compound 121] | 
40.83 | CCCNC(=O)CN1C(=O)C(CCOc2ccccc2CC(=O)O)Oc2ccccc21 (stereo not drawn) [Compound 122] | 
4.00 | CNC(=O)CCCN1C(=O)C(CCOc2ccccc2CC(=O)O)Oc2ccccc21 (stereo not drawn) [Compound 124] | 
10.78 | CC(=O)NCCCCCCN1C(=O)C(CCOc2ccccc2CC(=O)O)Oc2ccccc21 (stereo not drawn) [Compound 125] | 
12.96 | CS(=O)(=O)NCCCCCCN1C(=O)C(CCOc2ccccc2CC(=O)O)Oc2ccccc21 (stereo not drawn) [Compound 126, Benzeneacetic acid, 2-[2-[3,4-dihydro-3-oxo-4-(6-methanesulfonamidohexyl)-2H-1,4-benzoxazin-2-yl]ethoxy]-] | 
 | CCCCCCN1C(=O)C(C)(CCOc2ccccc2CC(=O)O)Oc2ccccc21 (stereo not drawn) [Compound 128, Benzeneacetic acid, 2-[2-(4-hexyl-3,4-dihydro-2-methyl-3-oxo-2H-1,4-benzoxazin-2-yl)ethoxy]-] | Agonist Intrinsic Activity (Table 2): 2.5
 | CCCCCCN1C(=O)C(CCOc2ccc(OC(C)(C)C(=O)O)cc2)Oc2ccccc21 (stereo not drawn) [Compound 129] | PPAR γ Agonist Intrinsic Activity: 12.62
 | CCCCCCN1C(=O)[C@](C)(CCOc2ccccc2CC(=O)O)Oc2ccccc21 [Compound 130] | PPAR γ Agonist Intrinsic Activity: 91.3
 | CC1(CCOc2ccccc2CC(=O)O)Oc2ccccc2N(CCCCCCF)C1=O (stereo not drawn) [Compound 131] | PPAR γ Agonist Intrinsic Activity: 36.4

Structure (SMILES) | Agonist Intrinsic Activity (Table 1) | other results
COC(=O)Cc1ccccc1OCCC1Oc2ccccc2N(c2ccc(Cl)c(Cl)c2)C1=O (stereo not drawn) [Compound 118] | 0.9 | 
